# Assay results reported in patent publication US20220202739A1, “ENDOCANNABINOID MIMETIC AND ANTI-INFLAMMATORY COMPOUND CONTAINING COMPOSITIONS, METHODS OF PREPARATION AND USES THEREOF” (priority 2019, published 2022).
# Read-outs that look alike come from different tables or passages of the source.
# Tested on: PPARG
# Test: Gene expression custom microarray, human skin fibroblasts (Example 1): PPARG
# Assay type: cell-based
# Conditions: for fold induction at 10 µM: Skin fibroblast, read-out: PPARG↑ gene expression, fold increase or decrease vs untreated cells
# Source text: Cell cultures: A human skin fibroblast cell culture (or cultures) was obtained through the Coriell Cell Repository from the National Institute on Aging Cell Repository (Camden, N.J.), or Promocell GmbH (Heidelberg, Germany). The initial culture was selected from the following cell lines: AG13066, AG11557, AG11796 or GM03651E. The cell lines were derived from donors as follows:
# Experimental phase: When the appropriate quantity of cells had been grown, they were detached as described above, but at the final step were seeded into each well of one or more 6 well dishes. Each well received 2 ml of the cell suspension so they were seeded equally. The dishes were returned to the incubator until 85-95% confluency was reached.
# It is at this stage that all wells were rinsed in PBS after aspirating the growth media. The compound(s) to be tested were previously mixed into a suitable solvent (e.g., DMSO or ethanol) that can be diluted to the desired concentration of test compound (10 μl) in the culture wells without exceeding maximum solvent concentrations and adversely effecting cell viability, and mixed with basal media. NOTE: Standard maximum levels of solvent are 0.1% for DMSO and 0.5% for ETOH.
# Every 2 wells on the 6 well plate served as a biological replicate for the purposes of RNA isolation and genetic expression evaluations making each 6 well dish an n=3 for the test compound(s) contained in the media. Negative control plates (no test compound(s) and only basal media) were also generated. The plates were returned to the incubator for 24 hrs.
# At the end of the 24 hr time period, the plates were removed from the incubator, the test media aspirated, and the cells rinsed with PBS. RNA isolation is performed using the BioRad Aurum Total RNA Mini Kit (Hercules, Calif.) per manufacturer's protocol; which is described, in brief, below: • Add 350 μl of lysis buffer to each well. Pipet multiple times to ensure thorough lysis. Add lysed cells to the collection tube. • Add 350 μl of 70% ETOH to the collection tube and mix thoroughly. • Pipet the generated lysate onto the spin column placed in a new 2 ml tube. Centrifuge for 30 sec between 8,000 and 10,000 g. • Place the spin column containing the now bound RNA, in a new 2 ml tube. Add 700 μl of low stringency wash solution to the spin column. Centrifuge for 30 sec between 8,000 and 10,000 g. Discard the flow through and replace spin column. • Add 80 μl of DNase I dilution to the spin column and incubate at room temperature for 15 minutes. • Add 700 μl of high stringency wash solution to the column and centrifuge for 30 sec between 8,000 and 10,000 g. Discard flow through. • Add 700 μl of low stringency wash solution to the column and centrifuge for 60 sec between 8,000 and 10,000 g. Discard flow through. • Centrifuge for 2 minutes to remove residual wash solution. • Transfer spin column to new 1.5 ml collection tube and add 80 μl of elution solution to the column. Allow 1 minute for saturation of the membrane and then centrifuge for 2 minutes to complete the RNA elution. • Quantify the quantity of RNA and store at −20 C° until use (no more than 1 month)
# The genes tested were: • Cannabinoid receptor 1 (CB1(CNR1)) • Cannabinoid receptor 2 (CB2 (CNR2)) • Fatty acid amide hydrolase (FAAH) • Monoacylglycerol lipase (MGLL, i.e., MAGL) • Peroxisome proliferator-activated receptor gamma (PPARG) • Nuclear factor kappa-light-chain-enhancer of activated B cells (NFκβ) • Interleukin 1 Alpha (IL1alpha) • Cyclooxygenase 1 (PTGS1, i.e., COX1) • Transient receptor potential cation channel subfamily A member 1 (TRPA1) • Transient receptor potential cation channel subfamily V member 1 (TRPV1) • Transient receptor potential cation channel subfamily M member 8 (TRPM8) • Hemoglobin Subunit Beta (HBB) REFERENCE GENE • Ribosomal Protein L13a (RPL13A) REFERENCE GENE
# [1] = human skin fibroblasts, 10 uM, 24 hr
smiles,measurement,setting,value
"C=C(C)[C@@H]1CCC(C)=C[C@H]1c1c(O)cc(CCCCC)cc1O [CBD, cannabidiol, reference compound]",fold induction at 10 µM,"Homo sapiens, 24 h",8.1
CCCCCCCCCCCCCCCC(=O)NCCO [N-palmitoylethanolamide],"PPARG↑ gene expression, fold increase or decrease vs untreated cells",[1],2.6 fold
CC(C)[C@]12O[C@H]1[C@@H]1O[C@]13[C@]1(O[C@H]1C[C@H]1C4=C(CC[C@@]13C)C(=O)OC4)[C@@H]2O [Triptolide],fold induction at 10 µM,[1],1.1
